Assay results: patent publication US7265152B2 (ViroPharma Incorporated, priority 2002, dated 2007)
pEC50, pIC50: −log10 of the molar value.

Assays:
[1] = system: HCV replicon (BB7 sequence) in Huh-7-Clone A cells; assay: HCV replicon assay: ELISA of NS5A protein in replicon-containing cells (Inhibition of Viral RNA Replication); type: cell-based; settings: Hepatitis C virus; HCV replicon, range of EC50; read-out: Replicon
Summary of the method: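 EC50 taken from an 8-point serially diluted dose curve, with NS5A level as read-out: fixed cells probed with primary monoclonal and HRP-conjugated secondary, TMB developed 30 min, OD 650 nm. Compound exposure 72 h in Huh-7-Clone A replicon cells (BB7 sequence).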

HCV NS5B = target: T1, HCV NS5B (Hepatitis C virus genotype 1b, UniProt Q9WMX2); assay: Inhibition of viral RNA-dependent RNA polymerase (RdRp), in vitro biochemical assay; parameters: species or system HCV genotype 1b virus (BB7); settings: HCV NS5B RdRp, BB7; reported as range class; read-out: HCV pol-BB7 IC50
T1 construct: fusion protein, of which the carboxyl terminal 21 amino acids were removed to enhance its solubility; His tag (GSHHHHHH); made in house; host or cells: E. coli
Summary of the method: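 IC50 values are the concentrations that halve in vitro RNA synthesis by HCV NS5B polymerase. The enzyme was a C-terminally truncated (Δ21), His-tagged genotype 1b (BB7 consensus) protein purified from E. coli.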

| SMILES | pEC50 [1] | pIC50 (HCV NS5B) |
| --- | --- | --- |
| CNC(=O)c1c(-c2ccc(F)cc2)oc2cc(N3CCOCC3)c(OCc3cccc(OC)c3)cc12 [Example 210, 2-(4-Fluoro-phenyl)-5-(3-methoxy-benzyloxy)-6-morpholin-4-yl-benzofuran-3-carboxylic acid methylamide] | > 6.00 | ≥ 6.30 |
| CNC(=O)c1c(-c2ccc(F)cc2)oc2cc(OCc3nnnn3C)c(OC)cc12 [Example 211, 2-(4-Fluoro-phenyl)-5-methoxy-6-(1-methyl-1H-tetrazol-5-ylmethoxy)-benzofuran-3-carboxylic acid methylamide] | > 6.00 | ≥ 6.30 |
| CNC(=O)c1c(-c2ccc(F)cc2)oc2cc(N3CCOCC3)c(OC(C)c3ccc(F)cc3)cc12 (stereo not drawn) [Example 212, 2-(4-Fluoro-phenyl)-5-[1-(4-fluoro-phenyl)-ethoxy]-6-morpholin-4-yl-benzofuran-3-carboxylic acid methylamide] | > 6.00 | ≥ 6.30 |
| CNC(=O)c1c(-c2ccc(F)cc2)oc2cc(N3CCOCC3)c(OCc3ccc(C#N)cc3)cc12 [Example 213, 5-(4-Cyano-benzyloxy)-2-(4-fluoro-phenyl)-6-morpholin-4-yl-benzofuran-3-carboxylic acid methylamide] | > 5.00 | 5.30 to 6.30 |
| CNC(=O)c1c(-c2ccc(F)cc2)oc2cc(N3CCOCC3)c(OCc3noc(-c4ccc(OC)cc4)n3)cc12 [Example 214, 2-(4-Fluoro-phenyl)-5-[5-(4-methoxy-phenyl)-[1,2,4]oxadiazol-3-ylmethoxy]-6-morpholin-4-yl-benzofuran-3-carboxylic acid methylamide] | > 6.00 | 5.30 to 6.30 |
| CNC(=O)c1c(-c2ccc(F)cc2)oc2cc(N3CCOCC3)c(OCC(C)=O)cc12 [Example 215, 2-(4-Fluoro-phenyl)-6-morpholin-4-yl-5-(2-oxo-propoxy)-benzofuran-3-carboxylic acid methylamide] | > 5.00 | 5.30 to 6.30 |
| CNC(=O)c1c(-c2ccc(F)cc2)oc2cc(N3CCOCC3)c(OCc3nccn3Cc3ccccc3)cc12 [Example 216, 5-(1-Benzyl-1H-imidazol-2-ylmethoxy)-2-(4-fluoro-phenyl)-6-morpholin-4-yl-benzofuran-3-carboxylic acid methylamide] | > 6.00 | ≥ 6.30 |
| CNC(=O)c1c(-c2ccc(F)cc2)oc2cc(N3CCOCC3)c(OCc3c(C)noc3C)cc12 [Example 217, 5-(3,5-Dimethyl-isoxazol-4-ylmethoxy)-2-(4-fluoro-phenyl)-6-morpholin-4-yl-benzofuran-3-carboxylic acid methylamide] | > 5.00 | 5.30 to 6.30 |
| CNC(=O)c1c(-c2ccc(F)cc2)oc2cc(N3CCOCC3)c(OCc3cc(C)on3)cc12 [Example 218, 2-(4-Fluoro-phenyl)-5-(5-methyl-isoxazol-3-ylmethoxy)-6-morpholin-4-yl-benzofuran-3-carboxylic acid methylamide] | > 6.00 | ≥ 6.30 |
| CNC(=O)c1c(-c2ccc(F)cc2)oc2cc(-c3nccs3)c(OC(C)C)cc12 [Example 219, 2-(4-Fluoro-phenyl)-5-isopropoxy-6-thiazol-2-yl-benzofuran-3-carboxylic acid methylamide] | > 5.00 | ≥ 6.30 |
| CNC(=O)c1c(-c2ccc(F)cc2)oc2cc(-c3ccc[nH]3)c(OC(C)C)cc12 [Example 220, 2-(4-Fluoro-phenyl)-5-isopropoxy-6-(1H-pyrrol-2-yl)-benzofuran-3-carboxylic acid methylamide] | > 5.00 | ≥ 6.30 |
| CNC(=O)c1c(-c2ccc(F)cc2)oc2cc(N(C(C)C)S(C)(=O)=O)c(OC)cc12 [Example 221, 2-(4-Fluoro-phenyl)-6-(isopropyl-methanesulfonyl-amino)-5-methoxy-benzofuran-3-carboxylic acid methylamide] | > 6.00 | ≥ 6.30 |
| CNC(=O)c1c(-c2ccc(F)cc2)oc2cc(C(C)O)c(OC(C)C)cc12 (stereo not drawn) [Example 222, 2-(4-Fluoro-phenyl)-6-(1-hydroxy-ethyl)-5-isopropoxy-benzofuran-3-carboxylic acid methylamide] | > 6.00 | ≥ 6.30 |
| CNC(=O)c1c(-c2ccc(F)cc2)oc2cc(CN3CCOCC3)c(OC(C)C)cc12 [Example 223, 2-(4-Fluoro-phenyl)-5-isopropoxy-6-morpholin-4-ylmethyl-benzofuran-3-carboxylic acid methylamide] | > 5.00 | 4.52 to 5.30 |
| CNC(=O)c1c(-c2ccc(F)cc2)oc2cc(CO)c(OC(C)C)cc12 [Example 224, 2-(4-Fluoro-phenyl)-6-hydroxymethyl-5-isopropoxy-benzofuran-3-carboxylic acid methylamide] | > 5.00 | ≥ 6.30 |
| CNC(=O)c1c(-c2ccc(F)cc2)oc2cc(N3CCOCC3)c(OCc3cnc[nH]3)cc12 [Example 225, 2-(4-Fluoro-phenyl)-5-(3H-imidazol-4-ylmethoxy)-6-morpholin-4-yl-benzofuran-3-carboxylic acid methylamide] | > 5.00 | ≥ 6.30 |
| CNC(=O)c1c(-c2ccc(F)cc2)oc2cc(N3CCOCC3)c(OCCOC)cc12 [Example 226, 2-(4-Fluoro-phenyl)-5-(2-methoxy-ethoxy)-6-morpholin-4-yl-benzofuran-3-carboxylic acid methylamide] | > 6.00 | ≥ 6.30 |
| CNC(=O)c1c(-c2ccc(F)cc2)oc2cc(-c3cncs3)c(OC(C)C)cc12 [Example 227, 2-(4-Fluoro-phenyl)-5-isopropoxy-6-thiazol-5-yl-benzofuran-3-carboxylic acid methylamide] | > 6.00 | ≥ 6.30 |
| CNC(=O)c1c(-c2ccc(F)cc2)oc2cc(N3CCOCC3)c(OCc3nn(C)cc3Cl)cc12 [Example 228, 5-(4-Chloro-1-methyl-1H-pyrazol-3-ylmethoxy)-2-(4-fluoro-phenyl)-6-morpholin-4-yl-benzofuran-3-carboxylic acid methylamide] | > 6.00 | ≥ 6.30 |
| CNC(=O)c1c(-c2ccc(F)cc2)oc2cc(N3CCOCC3)c(OC(C)C#N)cc12 (stereo not drawn) [Example 229, 5-(Cyano-methyl-methoxy)-2-(4-fluoro-phenyl)-6-morpholin-4-yl-benzofuran-3-carboxylic acid methylamide] | > 5.00 | ≥ 6.30 |
| CNC(=O)c1c(-c2ccc(F)cc2)oc2cc(-c3ccn[nH]3)c(OC(C)C)cc12 [Example 230, 2-(4-Fluoro-phenyl)-5-isopropoxy-6-(2H-pyrazol-3-yl)-benzofuran-3-carboxylic acid methylamide] | > 5.00 | ≥ 6.30 |
| CNC(=O)c1c(-c2ccc(F)cc2)oc2cc(-c3ccnn3C)c(OC(C)C)cc12 [Example 231, 2-(4-Fluoro-phenyl)-5-isopropoxy-6-(2-methyl-2H-pyrazol-3-yl)-benzofuran-3-carboxylic acid methylamide] | > 6.00 | ≥ 6.30 |
| CNC(=O)c1c(-c2ccc(F)cc2)oc2cc(-c3ccn(C)n3)c(OC(C)C)cc12 [Example 232, 2-(4-Fluoro-phenyl)-5-isopropoxy-6-(1-methyl-1H-pyrazol-3-yl)-benzofuran-3-carboxylic acid methylamide] | > 5.00 | 5.30 to 6.30 |
| CNC(=O)c1c(-c2ccc(F)cc2)oc2cc(-c3cc(C)no3)c(OC(C)C)cc12 [Example 233, 2-(4-Fluoro-phenyl)-5-isopropoxy-6-(3-methyl-isoxazol-5-yl)-benzofuran-3-carboxylic acid methylamide] | > 4.52 | ≥ 6.30 |
| CNC(=O)c1c(-c2ccc(F)cc2)oc2cc(N(Cc3nsc(Cl)n3)S(C)(=O)=O)c(OC(C)C)cc12 [Example 234, 6-[(5-Chloro-[1,2,4]thiadiazol-3-ylmethyl)-methanesulfonyl-amino]-2-(4-fluoro-phenyl)-5-isopropoxy-benzofuran-3-carboxylic acid methylamide] | > 5.00 | ≥ 6.30 |
| CNC(=O)c1c(-c2ccc(F)cc2)oc2cc(Nc3c(C)noc3C)c(OC(C)C)cc12 [Example 235, 6-(3,5-Dimethyl-isoxazol-4-ylamino)-2-(4-fluoro-phenyl)-5-isopropoxy-benzofuran-3-carboxylic acid methylamide] | < 4.52 | 4.52 to 5.30 |
| CNC(=O)c1c(-c2ccc(F)cc2)oc2cc(-c3cccnc3)c(OC)cc12 [Example 236, 2-(4-Fluoro-phenyl)-5-methoxy-6-pyridin-3-yl-benzofuran-3-carboxylic acid methylamide] | > 6.00 | ≥ 6.30 |
| CNC(=O)c1c(-c2ccc(F)cc2)oc2cc(CN(C)C)c(OC(C)C)cc12 [Example 237, 6-Dimethylaminomethyl-2-(4-fluoro-phenyl)-5-isopropoxybenzofuran 3-carboxylic acid methylamide] | > 4.52 | 4.52 to 5.30 |
| CNC(=O)c1c(-c2ccc(F)cc2)oc2cc(C(O)C(C)C)c(OC(C)C)cc12 (stereo not drawn) [Example 238, 2-(4-Fluoro-phenyl)-6-(1-hydroxy-2-methyl-propyl)-5-isopropoxy-benzofuran-3-carboxylic acid methylamide] | > 6.00 | ≥ 6.30 |
| CNC(=O)c1c(-c2ccc(F)cc2)oc2cc(-c3cn[nH]c3)c(OC(C)C)cc12 [Example 239, 2-(4-Fluoro-phenyl)-5-isopropoxy-6-(1H-pyrazol-4-yl)-benzofuran-3-carboxylic acid methylamide] | > 5.00 | 4.52 to 5.30 |
